The term IC50 denotes the concentration at which inhibition is half-maximal. A high value points to lower potency. Usually logP stands for the decadic logarithm of the partition coefficient of the neutral form, usually between octanol and water. Lower therefore signals a more hydrophilic compound.

We go through ten molecules from patent publication US20210214385A1, “INHIBITORS OF D-AMINO ACID OXIDASE AND USES THEREOF” (SyneuRx International (Taiwan) Corp., priority 2018, published 2021).

Molecules are shown by their SMILES. “And” between values parts separate entries of the source, which are not always exact repeats. Equal entries are not always repeated.

In one series the target is human D-amino acid oxidase (hDAAO) (Homo sapiens, UniProt P14920). The series can be described thus: In vitro measurement of human D-amino acid oxidase (hDAAO) activity, D-Serine substrate, Amplex Red fluorescence. Type of series: biochemical.
Sequence of human D-amino acid oxidase (hDAAO) (P14920 whole entry): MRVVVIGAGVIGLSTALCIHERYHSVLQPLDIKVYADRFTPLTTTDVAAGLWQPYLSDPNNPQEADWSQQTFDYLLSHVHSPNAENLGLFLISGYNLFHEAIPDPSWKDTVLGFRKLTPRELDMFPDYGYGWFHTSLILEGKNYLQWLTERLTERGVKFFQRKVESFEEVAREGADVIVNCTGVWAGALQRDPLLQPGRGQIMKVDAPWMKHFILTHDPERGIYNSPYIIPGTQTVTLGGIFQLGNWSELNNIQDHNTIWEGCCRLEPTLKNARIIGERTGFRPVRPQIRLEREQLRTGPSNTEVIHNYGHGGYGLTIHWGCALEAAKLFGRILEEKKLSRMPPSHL
Take `O=C(OC[C@H]1O[C@H](OC(=O)c2cc(O)c(O)c(OC(=O)c3cc(O)c(O)c(O)c3)c2)[C@H](OC(=O)c2cc(O)c(O)c(OC(=O)c3cc(O)c(O)c(O)c3)c2)[C@@H](OC(=O)c2cc(O)c(O)c(OC(=O)c3cc(O)c(O)c(O)c3)c2)[C@@H]1OC(=O)c1cc(O)c(O)c(OC(=O)c2cc(O)c(O)c(O)c2)c1)c1cc(O)c(O)c(OC(=O)c2cc(O)c(O)c(O)c2)c1` [Compound 21, (2R,3R,4S,5R,6R)-6-(((3,4-dihydroxy-5-((3,4,5-trihydroxybenzoyl)oxy)benzoyl)oxy)methyl)tetrahydro-2H-pyran-2,3,4,5-tetrayl tetrakis(3,4-dihydroxy-5-((3,4,5-trihydroxybenzoyl)oxy)benzoate)]: the IC50 is 19.4 nM and 20 nM.

For the molecule `O=C(OC[C@H]1O[C@H](OC(=O)c2cc(O)c(O)c(OC(=O)c3cc(O)c(O)c(OC(=O)c4cc(O)c(O)c(OC(=O)c5cc(O)c(O)c(O)c5)c4)c3)c2)[C@H](OC(=O)c2cc(O)c(O)c(OC(=O)c3cc(O)c(O)c(OC(=O)c4cc(O)c(O)c(OC(=O)c5cc(O)c(O)c(O)c5)c4)c3)c2)[C@@H](OC(=O)c2cc(O)c(O)c(OC(=O)c3cc(O)c(O)c(OC(=O)c4cc(O)c(O)c(OC(=O)c5cc(O)c(O)c(O)c5)c4)c3)c2)[C@@H]1OC(=O)c1cc(O)c(O)c(OC(=O)c2cc(O)c(O)c(OC(=O)c3cc(O)c(O)c(OC(=O)c4cc(O)c(O)c(O)c4)c3)c2)c1)c1cc(O)c(O)c(OC(=O)c2cc(O)c(O)c(OC(=O)c3cc(O)c(O)c(OC(=O)c4cc(O)c(O)c(O)c4)c3)c2)c1` [Compound 27, (2R,3R,4S,5R,6R)-6-(((3-((3,4-dihydroxy-5-((3,4-dihydroxy-5-((3,4,5-trihydroxybenzoyl)oxy)benzoyl)oxy)benzoyl)oxy)-4,5-dihydroxybenzoyl)oxy)methyl)tetrahydro-2H-pyran-2,3,4,5-tetrayl tetrakis(3-((3,4-dihydroxy-5-((3,4-dihydroxy-5-((3,4,5-trihydroxybenzoyl)oxy)benzoyl)oxy)benzoyl)oxy)-4,5-dihydroxybenzoate)], the half-inhibitory concentration (IC50) is 10.9 nM and 11 nM.

With `O=C(OC[C@H]1O[C@@H](OC(=O)c2cc(O)c(O)c(OC(=O)c3cc(O)c(O)c(OC(=O)c4cc(O)c(O)c(O)c4)c3)c2)[C@H](OC(=O)c2cc(O)c(O)c(OC(=O)c3cc(O)c(O)c(OC(=O)c4cc(O)c(O)c(O)c4)c3)c2)[C@@H](OC(=O)c2cc(O)c(O)c(OC(=O)c3cc(O)c(O)c(OC(=O)c4cc(O)c(O)c(O)c4)c3)c2)[C@@H]1OC(=O)c1cc(O)c(O)c(OC(=O)c2cc(O)c(O)c(OC(=O)c3cc(O)c(O)c(O)c3)c2)c1)c1cc(O)c(O)c(OC(=O)c2cc(O)c(O)c(OC(=O)c3cc(O)c(O)c(O)c3)c2)c1` [Compound 37, (2S,3R,4S,5R,6R)-6-(((3-((3,4-dihydroxy-5-((3,4,5-trihydroxybenzoyl)oxy)benzoyl)oxy)-4,5-dihydroxybenzoyl)oxy)methyl)tetrahydro-2H-pyran-2,3,4,5-tetrayl tetrakis(3-((3,4-dihydroxy-5-((3,4,5-trihydroxybenzoyl)oxy)benzoyl)oxy)-4,5-dihydroxybenzoate)], the half-maximal inhibitory concentration (IC50) was 11.8 nM and 12 nM.

As to `O=C(Oc1ccccc1)c1cc(O)c(O)c(OC(=O)c2cc(O)c(O)c(OC(=O)c3cc(O)c(O)c(OC(=O)c4cc(O)c(O)c(OC(=O)c5cc(O)c(O)c(OC(=O)c6cc(O)c(O)c(OC(=O)c7cc(O)c(O)c(O)c7)c6)c5)c4)c3)c2)c1` [Compound 48, 5-((5-((5-((5-((5-((2,3-dihydroxy-5-(phenoxycarbonyl)phenoxy)carbonyl)-2,3-dihydroxyphenoxy)carbonyl)-2,3-dihydroxyphenoxy)carbonyl)-2,3-dihydroxyphenoxy)carbonyl)-2,3-dihydroxyphenoxy)carbonyl)-2,3-dihydroxyphenyl 3,4,5-trihydroxybenzoate], the IC50 is 17.3 nM and 17 nM.

In the case of `O=C(Oc1cccc(OC(=O)c2cc(O)c(O)c(OC(=O)c3cc(O)c(O)c(OC(=O)c4cc(O)c(O)c(OC(=O)c5cc(O)c(O)c(OC(=O)c6cc(O)c(O)c(O)c6)c5)c4)c3)c2)c1)c1cc(O)c(O)c(OC(=O)c2cc(O)c(O)c(OC(=O)c3cc(O)c(O)c(OC(=O)c4cc(O)c(O)c(OC(=O)c5cc(O)c(O)c(O)c5)c4)c3)c2)c1` [Compound 51, 1,3-phenylene bis(3-((3-((3-((3,4-dihydroxy-5-((3,4,5-trihydroxybenzoyl)oxy)benzoyl)oxy)-4,5-dihydroxybenzoyl)oxy)-4,5-dihydroxybenzoyl)oxy)-4,5-dihydroxybenzoate)], the IC50 was 8.58 nM and 9 nM.

Take `O=C(Oc1cccc(OC(=O)c2cc(O)c(O)c(OC(=O)c3cc(O)c(O)c(OC(=O)c4cc(O)c(O)c(OC(=O)c5cc(O)c(O)c(OC(=O)c6cc(O)c(O)c(OC(=O)c7cc(O)c(O)c(OC(=O)c8cc(O)c(O)c(O)c8)c7)c6)c5)c4)c3)c2)c1)c1cc(O)c(O)c(OC(=O)c2cc(O)c(O)c(OC(=O)c3cc(O)c(O)c(OC(=O)c4cc(O)c(O)c(OC(=O)c5cc(O)c(O)c(OC(=O)c6cc(O)c(O)c(OC(=O)c7cc(O)c(O)c(O)c7)c6)c5)c4)c3)c2)c1` [Compound 53, 1,3-phenylene bis(3-((3-((3-((3-((3-((3,4-dihydroxy-5-((3,4,5-trihydroxybenzoyl)oxy)benzoyl)oxy)-4,5-dihydroxybenzoyl)oxy)-4,5-dihydroxybenzoyl)oxy)-4,5-dihydroxybenzoyl)oxy)-4,5-dihydroxybenzoyl)oxy)-4,5-dihydroxybenzoate)]: the IC50 is 5.8 nM and 6 nM.

`O=C(Oc1cc(OC(=O)c2cc(O)c(O)c(OC(=O)c3cc(O)c(O)c(OC(=O)c4cc(O)c(O)c(OC(=O)c5cc(O)c(O)c(OC(=O)c6cc(O)c(O)c(OC(=O)c7cc(O)c(O)c(OC(=O)c8cc(O)c(O)c(O)c8)c7)c6)c5)c4)c3)c2)cc(OC(=O)c2cc(O)c(O)c(OC(=O)c3cc(O)c(O)c(OC(=O)c4cc(O)c(O)c(OC(=O)c5cc(O)c(O)c(OC(=O)c6cc(O)c(O)c(OC(=O)c7cc(O)c(O)c(OC(=O)c8cc(O)c(O)c(O)c8)c7)c6)c5)c4)c3)c2)c1)c1cc(O)c(O)c(OC(=O)c2cc(O)c(O)c(OC(=O)c3cc(O)c(O)c(OC(=O)c4cc(O)c(O)c(OC(=O)c5cc(O)c(O)c(OC(=O)c6cc(O)c(O)c(OC(=O)c7cc(O)c(O)c(O)c7)c6)c5)c4)c3)c2)c1` [Compound 58, benzene-1,3,5-triyl tris(3-((3-((3-((3-((3-((3,4-dihydroxy-5-((3,4,5-trihydroxybenzoyl)oxy)benzoyl)oxy)-4,5-dihydroxybenzoyl)oxy)-4,5-dihydroxybenzoyl)oxy)-4,5-dihydroxybenzoyl)oxy)-4,5-dihydroxybenzoyl)oxy)-4,5-dihydroxybenzoate)]: the IC50 is 2.71 nM and 3 nM.

Take `O=C(OC[C@H]1O[C@H](OC(=O)c2cc(O)c(O)c(O)c2)[C@H](OC(=O)c2cc(O)c(O)c(O)c2)[C@@H](OC(=O)c2cc(O)c(O)c(O)c2)[C@@H]1OC(=O)c1cc(O)c(O)c(O)c1)c1cc(O)c(O)c(O)c1` [Compound 101]: the IC50 is 53.2 nM and 51 nM.

Consider `O=C(OC[C@H]1O[C@@H](OC(=O)c2cc(O)c(O)c(O)c2)[C@H](OC(=O)c2cc(O)c(O)c(O)c2)[C@@H](OC(=O)c2cc(O)c(O)c(O)c2)[C@@H]1OC(=O)c1cc(O)c(O)c(O)c1)c1cc(O)c(O)c(O)c1` [Compound 102], for which the IC50 is 54.2 nM and 53 nM.

Regarding `O=C(OCC1OC(OC(=O)c2cc(O)c(O)c(OC(=O)c3cc(O)c(O)c(O)c3)c2)C(OC(=O)c2cc(O)c(O)c(OC(=O)c3cc(O)c(O)c(O)c3)c2)C(OC(=O)c2cc(O)c(O)c(OC(=O)c3cc(O)c(O)c(O)c3)c2)C1OC(=O)c1cc(O)c(O)c(OC(=O)c2cc(O)c(O)c(O)c2)c1)c1cc(O)c(O)c(OC(=O)c2cc(O)c(O)c(O)c2)c1` (stereo not drawn) [Compound 103], the IC50 was 19.4 nM and 20 nM.

Tested on in the next series: not listed separately
The series can be described thus: Log P, n-octanol/water partition coefficient, HPLC. Type of series: physicochemical. As to the method:
The sample compounds tested in the log P experiments included enriched tannic acid (prepared by the enrichment method 10 of U.S. Ser. No. 10/105,378), compounds 21, 24, 27, 46, and 56. First, n-Octanol and water was saturated with each other to achieve partition equilibrium and the two phases were separated for further use. Sample compounds were dissolved in water and n-octanol phase, respectively. Both phases were mixed by vertical rotation movement. After the water and n-octal phases reached equilibrium state, both phases were analyzed to determine the concentrations of the sample compounds for the determination of log P values. All samples were performed in a Shimadzu CBM-20A FfPLC system. The chromatographic separation was carried out on a 5 μm, Kinetex C18 100 Å LC column (100×4.6 mm). The mobile phase was 0.1% formic acid in water and acetonitrile/Methanol set as gradient. Flow rate used was 1.2 mL/min. Column was at room temperature 20±5° C.
The partition coefficient abbreviated P is calculated based on the concentration in n-octanol divided by the concentration in water. The formula of log P is shown below: […]
`O=C(OC[C@H]1O[C@H](OC(=O)c2cc(O)c(O)c(OC(=O)c3cc(O)c(O)c(O)c3)c2)[C@H](OC(=O)c2cc(O)c(O)c(OC(=O)c3cc(O)c(O)c(O)c3)c2)[C@@H](OC(=O)c2cc(O)c(O)c(OC(=O)c3cc(O)c(O)c(O)c3)c2)[C@@H]1OC(=O)c1cc(O)c(O)c(OC(=O)c2cc(O)c(O)c(O)c2)c1)c1cc(O)c(O)c(OC(=O)c2cc(O)c(O)c(O)c2)c1` [Compound 21, (2R,3R,4S,5R,6R)-6-(((3,4-dihydroxy-5-((3,4,5-trihydroxybenzoyl)oxy)benzoyl)oxy)methyl)tetrahydro-2H-pyran-2,3,4,5-tetrayl tetrakis(3,4-dihydroxy-5-((3,4,5-trihydroxybenzoyl)oxy)benzoate)]: the logP stood at 1.32.

`O=C(OC[C@H]1O[C@H](OC(=O)c2cc(O)c(O)c(OC(=O)c3cc(O)c(O)c(OC(=O)c4cc(O)c(O)c(OC(=O)c5cc(O)c(O)c(O)c5)c4)c3)c2)[C@H](OC(=O)c2cc(O)c(O)c(OC(=O)c3cc(O)c(O)c(OC(=O)c4cc(O)c(O)c(OC(=O)c5cc(O)c(O)c(O)c5)c4)c3)c2)[C@@H](OC(=O)c2cc(O)c(O)c(OC(=O)c3cc(O)c(O)c(OC(=O)c4cc(O)c(O)c(OC(=O)c5cc(O)c(O)c(O)c5)c4)c3)c2)[C@@H]1OC(=O)c1cc(O)c(O)c(OC(=O)c2cc(O)c(O)c(OC(=O)c3cc(O)c(O)c(OC(=O)c4cc(O)c(O)c(O)c4)c3)c2)c1)c1cc(O)c(O)c(OC(=O)c2cc(O)c(O)c(OC(=O)c3cc(O)c(O)c(OC(=O)c4cc(O)c(O)c(O)c4)c3)c2)c1` [Compound 27, (2R,3R,4S,5R,6R)-6-(((3-((3,4-dihydroxy-5-((3,4-dihydroxy-5-((3,4,5-trihydroxybenzoyl)oxy)benzoyl)oxy)benzoyl)oxy)-4,5-dihydroxybenzoyl)oxy)methyl)tetrahydro-2H-pyran-2,3,4,5-tetrayl tetrakis(3-((3,4-dihydroxy-5-((3,4-dihydroxy-5-((3,4,5-trihydroxybenzoyl)oxy)benzoyl)oxy)benzoyl)oxy)-4,5-dihydroxybenzoate)] showed a logP of 0.6.
